“And” between values parts separate entries of the source, which are not always exact repeats. Identical values can stand only once. Like-named read-outs stand apart in the source and are kept apart here.
Key:
[1] = test system: all of the MBLs (VIM-2, VIM-4, SPM-1, NDM-1, IMP-1, FEZ-1); test: Complete time courses of ceftazidime hydrolysis; format: biochemical; conditions: all MBLs incl. VIM-4; concluded from quasi first-order complete time courses, 5 mM HEPES pH 7.5
SPM-1 [2] = test system: SPM-1; parameters: method as in PMID 12543663; conditions: reported conditions different, read-out: ceftazidime Km; cited from earlier work
FEZ-1 [3] = target: T1, FEZ-1 (Fluoribacter gormanii, UniProt Q9K578); parameters: method as in PMID 11257043; conditions: reported conditions different, read-out: ceftazidime Km; cited from earlier work
T1 sequence (Q9K578 21-282 limits assumed): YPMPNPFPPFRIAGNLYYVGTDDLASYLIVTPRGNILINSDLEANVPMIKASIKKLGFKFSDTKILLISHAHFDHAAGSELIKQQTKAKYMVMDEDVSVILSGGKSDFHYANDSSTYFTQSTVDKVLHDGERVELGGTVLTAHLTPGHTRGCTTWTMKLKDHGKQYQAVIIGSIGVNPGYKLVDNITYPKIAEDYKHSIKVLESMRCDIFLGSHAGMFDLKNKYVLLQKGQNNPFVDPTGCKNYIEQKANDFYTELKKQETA

VIM-2 [4] = target: T2, VIM-2 (Escherichia coli, UniProt Q5U7L7); conditions: cited from earlier work
NDM-1 [5] = target: T3, NDM-1 (Klebsiella pneumoniae, UniProt C7C422); conditions: cited from earlier work
T3 sequence (C7C422 43-270 limits assumed, looked up, species assumed): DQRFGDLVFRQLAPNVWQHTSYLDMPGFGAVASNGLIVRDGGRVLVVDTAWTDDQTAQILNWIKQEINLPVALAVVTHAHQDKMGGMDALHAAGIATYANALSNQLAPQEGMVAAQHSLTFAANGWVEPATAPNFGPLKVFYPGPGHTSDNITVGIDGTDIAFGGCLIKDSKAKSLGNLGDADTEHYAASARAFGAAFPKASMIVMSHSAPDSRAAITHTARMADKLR

IMP-1 [6] = target: T4, IMP-1 (Serratia marcescens, UniProt P52699); conditions: cited from earlier work
T4 sequence (P52699 19-246 limits assumed): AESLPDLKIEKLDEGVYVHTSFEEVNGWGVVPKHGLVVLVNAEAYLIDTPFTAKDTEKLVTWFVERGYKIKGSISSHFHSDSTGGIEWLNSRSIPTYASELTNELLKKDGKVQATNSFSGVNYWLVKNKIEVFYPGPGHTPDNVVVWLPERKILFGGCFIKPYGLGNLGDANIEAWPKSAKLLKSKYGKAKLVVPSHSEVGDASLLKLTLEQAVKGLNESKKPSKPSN

[7] = test system: NC(=O)[C@@H]1CC[C@@H]2CN1C(=O)N2OS(=O)(=O)O; test: purified protein, by the assay type
VIM-2 [8] = target: T2, VIM-2; test: biochemical
VIM-4 [9] = target: T5, VIM-4 (Pseudomonas aeruginosa, UniProt Q8KRJ3); format: biochemical; conditions: read-out: Approximate Ki value (reflecting Km), from a single avibactam concentration (1 mM), ceftazidime 30 µM substrate
SPM-1 [10] = format: biochemical
NDM-1 [11] = target: T3, NDM-1; test: biochemical
IMP-1 [12] = target: T4, IMP-1; test: biochemical; conditions: Approximate Ki (= Km) value, from a single avibactam concentration (1 mM), ceftazidime 30 µM substrate
FEZ-1 [13] = target: T1, FEZ-1; test: biochemical; parameters: species or system Fluoribacter (Legionella) gormanii; conditions: Approximate Ki (= Km) value, from a single avibactam concentration (1 mM), ceftazidime 30 µM substrate
NDM-1 [14] = target: T3, NDM-1; format: binding; conditions: avibactam 4 mM, Tris-D11 50 mM pH 7.5
VIM-2 [15] = target: T2, VIM-2; format: binding; conditions: VIM-2 80 μM, avibactam 4 mM, Tris-D11 50 mM pH 7.5
VIM-4 [16] = target: T5, VIM-4; format: binding; conditions: VIM-4 80 μM, avibactam 4 mM, Tris-D11 50 mM pH 7.5
BcII = BcII (Bacillus cereus, UniProt P04190); format: binding; conditions: BcII 80 μM, avibactam 4 mM, Tris-D11 50 mM pH 7.5
Sequence of BcII (P04190 31-257): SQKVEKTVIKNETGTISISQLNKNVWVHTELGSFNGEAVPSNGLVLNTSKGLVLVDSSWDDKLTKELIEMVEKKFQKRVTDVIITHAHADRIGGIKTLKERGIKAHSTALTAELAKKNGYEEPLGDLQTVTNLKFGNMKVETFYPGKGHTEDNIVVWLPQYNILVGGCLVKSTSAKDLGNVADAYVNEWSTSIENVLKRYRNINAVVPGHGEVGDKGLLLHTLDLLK
Description: (§1) Typical experimental parameters for Carr-Purcell-Meiboom-Gill (CPMG) NMR spectroscopy were the following: total echo time, 40 ms; relaxation delay, 2 s; and number of transients, 264 ([31]). The PROJECT-CPMG sequence (90°x-[τ-180°y-τ-90°y-τ-180°y-τ]n-acq) was applied. Water suppression was achieved by presaturation. Prior to Fourier transformation, the data were multiplied with an exponential function with 3-Hz line broadening.
(§2) For ^1H excitation sculpting suppression with perfect echo NMR experiments, spectra were typically obtained using 256 scans and a relaxation delay of 1 s ([32]). A 2-ms sinc pulse was used for water suppression. Prior to Fourier transformation, data were multiplied with an exponential function with 2-Hz line broadening.
(§3) For water-ligand observed gradient spectroscopy (wLOGSY) analyses, typical experimental parameters were the following: mixing time, 1 s; relaxation delay, 2 s; number of transients, 256 ([33]). Solvent excitation was achieved using a 16-ms 180° selective rectangular shape pulse with 1,000 points (Squa100.1000) set at the H2O frequency. Water suppression was achieved by a 2-ms sinc pulse (Sinc1.1000) at the H2O frequency.

SPM-1 [17] = format: binding
Description: as §1, §2, §3

FEZ-1 [18] = target: T1, FEZ-1; format: binding, Fluoribacter (Legionella) gormanii; conditions: FEZ-1 80 μM, avibactam 4 mM, Tris-D11 50 mM pH 7.5
CphA = CphA (Aeromonas hydrophila, UniProt P26918); format: binding; conditions: CphA 80 μM, avibactam 4 mM, Tris-D11 50 mM pH 7.5
Sequence of CphA (P26918 28-254): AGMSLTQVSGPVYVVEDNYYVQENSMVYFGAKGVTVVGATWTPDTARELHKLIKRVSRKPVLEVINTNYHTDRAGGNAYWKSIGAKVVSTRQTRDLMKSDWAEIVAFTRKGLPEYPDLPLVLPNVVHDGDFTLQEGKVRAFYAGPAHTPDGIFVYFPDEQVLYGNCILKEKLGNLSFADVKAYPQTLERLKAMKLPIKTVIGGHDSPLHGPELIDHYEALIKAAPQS

VIM-4 [19] = target: T5, VIM-4; conditions: 1 mM avibactam (600 μl), 12 μg VIM-4, 5 mM HEPES pH 7.5, 20 μM ZnCl2, 4 h at 37°C
NDM-1 [20] = target: T3, NDM-1; conditions: NDM-1 0.022 mM; still extremely slow by normal β-lactamase standards
VIM-4 [21] = target: T5, VIM-4; conditions: still extremely slow by normal β-lactamase standards
VIM-4 [22] = target: T5, VIM-4; conditions: VIM-4, 240 min, Raman spectroscopy
VIM-4 [23] = target: T5, VIM-4; conditions: LC-MS
[24] = Stability of avibactam in buffer without enzyme (NMR control); conditions: buffer (Tris-D11 50 mM, pH 7.5)

Q: With `CC(C)(O/N=C(\C(=O)N[C@@H]1C(=O)N2C(C(=O)[O-])=C(C[n+]3ccccc3)CS[C@H]12)c1csc(N)n1)C(=O)O` [ceftazidime] as the compound, how does the Km [1] read?
A: > 30 µM

Q: And the Km (SPM-1 [2])?
A: 46 µM

Q: What about the Km (FEZ-1 [3]) of the same compound?
A: > 1000 µM

Q: What about the Km (VIM-2 [4]) of the same compound?
A: 72 µM

Q: And the Km (NDM-1 [5])?
A: 180 µM

Q: And the Km (IMP-1 [6])?
A: 46 µM

Q: Which results are given for FEZ-1 (Fluoribacter gormanii)?
A: kcat/Km [7]: 70 ± 15 M⁻¹ s⁻¹; kcat/Km ([7]; pH 7.5, 30.0 °C): 70 ± 15 M⁻¹ s⁻¹

Q: Which Ki (VIM-2 [8]) does the source give for `NC(=O)[C@@H]1CC[C@@H]2CN1C(=O)N2OS(=O)(=O)O` [avibactam] here?
A: > 5000 µM

Q: What about the Ki (VIM-4 [9]) of the same compound?
A: > 5000 µM

Q: And the “Effect of avibactam on SPM-1-catalyzed ceftazidime hydrolysis” value (SPM-1 [10]; 1 mM avibactam, ceftazidime 30 µM)?
A: apparent activation

Q: And the Residual activity (SPM-1 [10]; ceftazidime (30 µM) in the presence of 1 mM avibactam, HEPES buffer, 30°C)?
A: 140 + 15%

Q: What about the Ki (NDM-1 [11]) of the same compound?
A: > 5000 µM

Q: And the Ki (IMP-1 [12])?
A: 1700 µM and ~1700 µM

Q: And the Ki (FEZ-1 [13])?
A: 2300 µM and ~2300 µM

Q: And the “Binding by 1H CPMG NMR” value (NDM-1 [14])?
A: weak binding

Q: What about the “Binding by 1H CPMG NMR” value (VIM-2 [15]) of the same compound?
A: weak binding

Q: And the “Binding by 1H CPMG NMR” value (VIM-4 [16])?
A: weak binding

Q: What about the “Binding by 1H CPMG NMR” value (BcII) of the same compound?
A: did not observe binding

Q: What about the “Binding by 1H CPMG NMR” value (SPM-1 [17]; SPM-1 80 μM, avibactam 4 mM, Tris-D11 50 mM pH 7.5) of the same compound?
A: weak binding

Q: What about the “Binding by 1H CPMG NMR” value (FEZ-1 [18]) of the same compound?
A: weak binding

Q: And the “Binding by 1H CPMG NMR” value (CphA)?
A: did not observe binding

Q: What about the “Avibactam hydrolyzed (from absorbance at 230 nm)” value (VIM-4 [19]) of the same compound?
A: ~70%

Q: And the “Avibactam hydrolysis observed by NMR” value (NDM-1 [20])?
A: more efficient hydrolysis

Q: What about the “Avibactam hydrolysis observed by NMR” value (VIM-4 [21]) of the same compound?
A: more efficient hydrolysis

Q: What about the “Amount of sulfate produced from avibactam (of the total avibactam product)” value (VIM-4 [22]) of the same compound?
A: < 15%

Q: What about the “Reduction of the avibactam MS signal after VIM-4-catalyzed hydrolysis” value (VIM-4 [23]) of the same compound?
A: ~50 fold

Q: And the “Hydrolysis of avibactam without enzyme” value [24]?
A: did not lead to detectable product levels

Q: With `NC(=O)[C@@H]1CC[C@@H](NOS(=O)(=O)O)CN1` [hydrolyzed product(s)] as the compound, how does the “Binding of products of avibactam by wLOGSY NMR” value (SPM-1 [17]; SPM-1, hydrolyzed product NOE sign opposite to that of SPM-1 (free ligand)) read?
A: no evidence for binding

— article PMC5038302 (Antimicrobial Agents and Chemotherapy, 2016)
